Structures can show the parent of a compound that is named as a salt. Where two headings read alike, the source gives them in different places.
Assays:
PKC epsilon = biological target: T1, PKC epsilon (Homo sapiens, UniProt Q02156); assay: Biochemical assay for PKC epsilon (fluorescence polarization, Protein Kinase C Assay Kit, Red); details: read-out: IC50 μM PKCε
T1 construct: purchased Invitrogen P2282
T1 sequence (Q02156 1-737): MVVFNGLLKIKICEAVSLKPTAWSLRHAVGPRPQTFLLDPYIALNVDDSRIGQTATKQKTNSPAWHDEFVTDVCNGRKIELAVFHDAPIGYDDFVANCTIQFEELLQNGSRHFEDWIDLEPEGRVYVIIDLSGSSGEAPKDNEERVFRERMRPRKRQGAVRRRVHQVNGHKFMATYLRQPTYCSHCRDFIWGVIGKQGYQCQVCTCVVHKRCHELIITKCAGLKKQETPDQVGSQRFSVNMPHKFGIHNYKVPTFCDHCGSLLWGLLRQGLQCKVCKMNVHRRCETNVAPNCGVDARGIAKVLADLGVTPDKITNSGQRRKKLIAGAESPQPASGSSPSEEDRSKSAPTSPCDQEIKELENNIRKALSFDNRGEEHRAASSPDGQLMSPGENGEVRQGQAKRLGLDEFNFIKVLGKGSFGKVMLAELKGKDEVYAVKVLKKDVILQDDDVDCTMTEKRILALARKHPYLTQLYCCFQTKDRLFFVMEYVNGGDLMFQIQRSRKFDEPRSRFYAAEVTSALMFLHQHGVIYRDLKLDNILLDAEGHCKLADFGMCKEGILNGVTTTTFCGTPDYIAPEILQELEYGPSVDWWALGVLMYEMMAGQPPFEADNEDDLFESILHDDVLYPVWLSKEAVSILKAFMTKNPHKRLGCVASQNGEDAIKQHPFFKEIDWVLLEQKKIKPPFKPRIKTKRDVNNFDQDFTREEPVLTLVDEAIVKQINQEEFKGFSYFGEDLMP
Summary of the method: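 PKC epsilon at 10 ng/ml final was preincubated 30 min at room temperature with compound in HEPES pH 7.4 with DTT and Triton X-100. ATP/protein substrate was then added in buffer with MgCl2 and CaCl2 for 80 min. The reaction was stopped with EDTA, phosphorylation was detected by fluorescence polarization with rhodamine tracer and anti-phosphoserine antibody, and IC50 values came from curve fits.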

human ROCKα/ROCKII mix = biological target: T2, human ROCKα/ROCKII mix (Homo sapiens, UniProt O75116); assay: Biochemical assay for ROCK (fluorescence polarization, ROCK IMAP Kit)
T2 construct: purchased Upstate Biotechnology 14-451

[1] = Table 2, compounds of Formula XIII
[2] = compounds of Formula XIV, Table 3

T2 sequence (O75116 11-552 limits assumed): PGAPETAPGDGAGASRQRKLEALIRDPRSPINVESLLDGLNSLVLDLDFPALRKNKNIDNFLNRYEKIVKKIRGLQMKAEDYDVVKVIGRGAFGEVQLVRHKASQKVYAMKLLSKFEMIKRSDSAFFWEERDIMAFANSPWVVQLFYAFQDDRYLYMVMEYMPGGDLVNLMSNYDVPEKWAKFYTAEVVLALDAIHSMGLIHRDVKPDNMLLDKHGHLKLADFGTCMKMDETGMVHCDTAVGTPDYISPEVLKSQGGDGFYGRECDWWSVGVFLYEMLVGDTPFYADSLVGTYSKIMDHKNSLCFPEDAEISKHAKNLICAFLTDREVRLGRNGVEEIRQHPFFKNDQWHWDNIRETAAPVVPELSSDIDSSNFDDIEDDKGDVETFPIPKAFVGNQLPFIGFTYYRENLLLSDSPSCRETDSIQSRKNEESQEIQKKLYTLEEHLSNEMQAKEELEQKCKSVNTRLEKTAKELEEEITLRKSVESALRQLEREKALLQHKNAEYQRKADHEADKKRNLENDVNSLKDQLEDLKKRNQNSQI

SMILES | IC50 (PKC epsilon; [1]) | IC50 (human ROCKα/ROCKII mix; [1]) | IC50 (PKC epsilon; [2]) | IC50 (human ROCKα/ROCKII mix; [2])
NC(CNC(=O)Cc1csc(Nc2ccccc2)n1)c1ccc(C(=O)Nc2ccncc2)cc1 (centres unmarked) [Compound 155, 4-{1-Amino-2-[2-(2-phenylamino-thiazol-4-yl)-acetylamino]-ethyl}-N-pyridin-4-yl-benzamide] | 0.5 to 5 µM | 0.5 to 5 µM |  | 
NC(CNC(=O)COc1ccccc1)c1ccc(C(=O)Nc2ccncc2)cc1 (centres unmarked) [Compound 156, 4-[1-Amino-2-(2-phenoxy-acetylamino)-ethyl]-N-pyridin-4-yl-benzamide] | 0.05 to 0.5 µM | 0.05 to 0.5 µM |  | 
NC(CNC(=O)COc1ccc(F)cc1)c1ccc(C(=O)Nc2ccncc2)cc1 (centres unmarked) [Compound 157, 4-{1-Amino-2-[2-(4-fluoro-phenoxy)-acetylamino]-ethyl}-N-pyridin-4-yl-benzamide] | 0.05 to 0.5 µM | 0.05 to 0.5 µM |  | 
CCC(Oc1ccccc1)C(=O)NCC(N)c1ccc(C(=O)Nc2ccncc2)cc1 (centres unmarked) [Compound 158, 4-[1-Amino-2-(2-phenoxy-butyrylamino)-ethyl]-N-pyridin-4-yl-benzamide] | 0.5 to 5 µM | 0.05 to 0.5 µM |  | 
Cc1cc(Cl)ccc1OC(C)C(=O)NCC(N)c1ccc(C(=O)Nc2ccncc2)cc1 (centres unmarked) [Compound 159, 4-{1-Amino-2-[2-(4-chloro-2-methyl-phenoxy)-propionylamino]-ethyl}-N-pyridin-4-yl-benzamide] | 0.5 to 5 µM | 0.05 to 0.5 µM |  | 
NC(CNC(=O)CC(c1ccccc1)c1ccccc1)c1ccc(C(=O)Nc2ccncc2)cc1 (centres unmarked) [Compound 160, 4-[1-Amino-2-(3,3-diphenyl-propionylamino)-ethyl]-N-pyridin-4-yl-benzamide] | 5 to 50 µM | 0.05 to 0.5 µM |  | 
NC(CNC(=O)C1Cc2ccccc21)c1ccc(C(=O)Nc2ccncc2)cc1 (centres unmarked) [Compound 161, Bicyclo[4.2.0]octa-1,3,5-triene-7-carboxylic acid {2-amino-2-[4-(pyridin-4-ylcarbamoyl)-phenyl]-ethyl}-amide] | 0.5 to 5 µM | 0.05 to 0.5 µM |  | 
NC(CNC(=O)CCc1ccccc1)c1ccc(C(=O)Nc2ccncc2)cc1 (centres unmarked) [Compound 162] | 0.5 to 5 µM | 0.05 to 0.5 µM |  | 
NC(CNC(=O)CCc1ccc(F)cc1)c1ccc(C(=O)Nc2ccncc2)cc1 (centres unmarked) [Compound 163, 4-{1-amino-2-[3-(4-fluoro-phenyl)-propionylamino]-ethyl}-N-pyridin-4-yl-benzamide] | 0.05 to 0.5 µM | 0.05 to 0.5 µM |  | 
NC(CNC(=O)C1CCc2ccccc2C1)c1ccc(C(=O)Nc2ccncc2)cc1 (centres unmarked) [Compound 164, 1,2,3,4-Tetrahydro-naphtalene-2-carboxylic acid {2-amino-2-[4-(pyridin-4-ylcarbamoyl)-phenyl]-ethyl}-amide] | 0.5 to 5 µM | 0.5 to 5 µM |  | 
CC1=C(C(=O)NCC(N)c2ccc(C(=O)Nc3ccncc3)cc2)Cc2ccccc21 (centres unmarked) [Compound 165, 3-Methyl-1H-indene-2-carboxylic acid {2-amino-2-[4-(pyridin-4-ylcarbamoyl)-phenyl]-ethyl}-amide] | 0.5 to 5 µM | 0.5 to 5 µM |  | 
NC(CNC(=O)CCc1cccnc1)c1ccc(C(=O)Nc2ccncc2)cc1 (centres unmarked) [Compound 166, 4-[1-Amino-2-(3-pyridin-3-yl-propionylamino)-ethyl]-N-pyridin-4-yl-benzamide] | 5 to 50 µM | 0.5 to 5 µM |  | 
NC(CNC(=O)Cc1ccc(F)c(F)c1)c1ccc(C(=O)Nc2ccncc2)cc1 (centres unmarked) [Compound 167, 4-{1-Amino-2-[2-(3,4-difluoro-phenyl)-acetylamino]-ethyl}-N-pyridin-4-yl-benzamide dihydrochloride] | 0.05 to 0.5 µM | 0.05 to 0.5 µM |  | 
CCNC(=O)CC(N)c1ccc(C(=O)Nc2ccncc2)cc1 (centres unmarked) [Compound 169] |  |  | 0.5 to 5 µM | 0.05 to 0.5 µM
CC(C)C(C)NC(=O)CC(N)c1ccc(C(=O)Nc2ccncc2)cc1 (centres unmarked) [Compound 170, 4-[1-amino-2-(1,2-dimethyl-propylcarbamoyl)-ethyl]-N-pyridin-4-yl-benzamide] |  |  | 0.5 to 5 µM | 0.05 to 0.5 µM
CN(C)CCNC(=O)CC(N)c1ccc(C(=O)Nc2ccncc2)cc1 (centres unmarked) [Compound 174, 4-[1-amino-2-(2-dimethylamino-ethylcarbamoyl)-ethyl]-N-pyridin-4-yl-benzamide] |  |  | 0.5 to 5 µM | 0.05 to 0.5 µM
CC(=O)NCCNC(=O)CC(N)c1ccc(C(=O)Nc2ccncc2)cc1 (centres unmarked) [Compound 175, 4-[2-(2-acetylamino-ethylcaramoyl)-1-amino-ethyl]-N-pyridin-4-yl-benzamide] |  |  | 0.5 to 5 µM | 0.05 to 0.5 µM
CS(=O)(=O)NCCNC(=O)CC(N)c1ccc(C(=O)Nc2ccncc2)cc1 (centres unmarked) [Compound 176, 4-[1-amino-2-(2-methanesulfonylamino-ethylcarbamoyl)-ethyl]-N-pyridin-4-yl-benzamide] |  |  | 0.5 to 5 µM | 0.05 to 0.5 µM
N#CCCN(C(=O)CC(N)c1ccc(C(=O)Nc2ccncc2)cc1)C1CC1 (centres unmarked) [Compound 178, 4-{1-amino-2-[(2-cyano-ethyl)-cyclopropyl-carbamoyl]-ethyl}-N-pyridin-4-yl-benzamide] |  |  | 5 to 50 µM | 0.5 to 5 µM
CN(CCO)C(=O)CC(N)c1ccc(C(=O)Nc2ccncc2)cc1 (centres unmarked) [Compound 179, 4-{1-amino-2-[(2-hydroxy-ethyl)-methyl-carbamoyl]-ethyl}-N-pyridin-4-yl-benzamide] |  |  | 0.5 to 5 µM | 0.05 to 0.5 µM

Next, values leading:

IC50 (PKC epsilon; [1]) | IC50 (human ROCKα/ROCKII mix; [1]) | IC50 (PKC epsilon; [2]) | IC50 (human ROCKα/ROCKII mix; [2]) | SMILES
 |  | 0.5 to 5 µM | 0.05 to 0.5 µM | COCCNC(=O)CC(N)c1ccc(C(=O)Nc2ccncc2)cc1 (centres unmarked) [Compound 180, 4-[1-amino-2-(2-methoxy-ethylcarbamoyl)-ethyl]-N-pyridin-4-yl-benzamide]
 |  | 0.5 to 5 µM | 0.05 to 0.5 µM | COCC(C)NC(=O)CC(N)c1ccc(C(=O)Nc2ccncc2)cc1 (centres unmarked) [Compound 181, 4-[1-amino-2-(2-methoxy-1-methyl-ethylcarbamoyl)-ethyl]-N-pyridin-4-yl-benzamide]
 |  | 0.5 to 5 µM | 0.05 to 0.5 µM | COC(=O)C(C)NC(=O)CC(N)c1ccc(C(=O)Nc2ccncc2)cc1 (centres unmarked) [Compound 182]
 |  | 0.5 to 5 µM | 0.05 to 0.5 µM | CONC(=O)CC(N)c1ccc(C(=O)Nc2ccncc2)cc1 (centres unmarked) [Compound 183, 4-(1-amino-2-methoxycarbamoyl-ethyl)-N-pyridin-4-yl-benzamide]
 |  | 0.5 to 5 µM | 0.05 to 0.5 µM | NC(CC(=O)NCC1CCCO1)c1ccc(C(=O)Nc2ccncc2)cc1 (centres unmarked) [Compound 184, 4-{1-amino-2-[(tetrahydro-furan-2-ylmethyl)-carbamoyl]-ethyl}-N-pyridin-4-yl-benzamide]
 |  | 0.5 to 5 µM | 0.05 to 0.5 µM | NC(CC(=O)NC1CCN(Cc2ccccc2)CC1)c1ccc(C(=O)Nc2ccncc2)cc1 (centres unmarked) [Compound 200, 4-[1-amino-2-(1-benzyl-piperidin-4-ylcarbamoyl)-ethyl]-N-pyridin-4-yl-benzamide]
 |  | 0.5 to 5 µM | 0.05 to 0.5 µM | Cc1cccc(CN2CCC(NC(=O)CC(N)c3ccc(C(=O)Nc4ccncc4)cc3)CC2)c1 (centres unmarked) [Compound 201, 4-{1-amino-2-[1-(3-methyl-benzyl)-piperidin-4-ylcarbamoyl]-ethyl}-N-pyridin-4-yl-benzamide]
 |  | 0.5 to 5 µM | 0.05 to 0.5 µM | Cc1ccc(CN2CCC(NC(=O)CC(N)c3ccc(C(=O)Nc4ccncc4)cc3)CC2)s1 (centres unmarked) [Compound 202]
 |  | 0.5 to 5 µM | 0.05 to 0.5 µM | NC(CC(=O)NCc1ccccc1)c1ccc(C(=O)Nc2ccncc2)cc1 (centres unmarked) [Compound 213, 4-(1-Amino-2-benzylcarbamoyl-ethyl)-N-pyridin-4-yl-benzamide]
 |  | 0.5 to 5 µM | 0.05 to 0.5 µM | CC(NC(=O)CC(N)c1ccc(C(=O)Nc2ccncc2)cc1)c1ccccc1 (centres unmarked) [Compound 215, 4-[1-Amino-2-(1-phenyl-ethylcarbamoyl)-ethyl]-N-pyridin-4-yl-benzamide]
 |  | 0.5 to 5 µM | 0.05 to 0.5 µM | CC[C@@H](NC(=O)CC(N)c1ccc(C(=O)Nc2ccncc2)cc1)c1ccccc1 (stereo partly drawn) [Compound 216, 4-[1-Amino-2-(1-(R)-phenyl-propylcarbamoyl)-ethyl]-N-pyridin-4-yl-benzamide]
 |  | 0.5 to 5 µM | 0.05 to 0.5 µM | CC[C@H](NC(=O)CC(N)c1ccc(C(=O)Nc2ccncc2)cc1)c1ccccc1 (stereo partly drawn) [Compound 217, 4-[1-Amino-2-(1-(S)-phenyl-propylcarbamoyl)-ethyl]-N-pyridin-4-yl-benzamide]
 |  | 0.5 to 5 µM | 0.05 to 0.5 µM | CC(C)(NC(=O)CC(N)c1ccc(C(=O)Nc2ccncc2)cc1)c1ccccc1 (centres unmarked) [Compound 218, 4-[1-Amino-2-(1-methyl-1-phenyl-ethylcarbamoyl)-ethyl]-N-pyridin-4-yl-benzamide]
 |  | 0.05 to 0.5 µM | 0.05 to 0.5 µM | NC(CC(=O)NC1CCCc2ccccc21)c1ccc(C(=O)Nc2ccncc2)cc1 (centres unmarked) [Compound 223, 4-[1-Amino-2-(1,2,3,4-tetrahydro-naphtalen-1-ylcarbamoyl)-ethyl]-N-pyridin-4-yl-benzamide]

— patent publication US20100168102A9, “Amide Derivatives as Kinase Inhibitors” (Devgen NV, priority 2005, published 2010)
